Measured values published in ChEMBL document CHEMBL1139578, “(1H-imidazo[4,5-c]pyridin-2-yl)-1,2,5-oxadiazol-3-ylamine derivatives: further optimisation as highly potent and selective MSK-1-inhibitors” (Bioorg Med Chem Lett, 2005).
One block for each molecule: values may come before it.

How the values were obtained:
[1] = target: T1, Ribosomal protein S6 kinase alpha-5 (Homo sapiens, UniProt O75582); assay: Inhibitory concentration against MSK-1
Target sequence in this assay (O75582 whole entry): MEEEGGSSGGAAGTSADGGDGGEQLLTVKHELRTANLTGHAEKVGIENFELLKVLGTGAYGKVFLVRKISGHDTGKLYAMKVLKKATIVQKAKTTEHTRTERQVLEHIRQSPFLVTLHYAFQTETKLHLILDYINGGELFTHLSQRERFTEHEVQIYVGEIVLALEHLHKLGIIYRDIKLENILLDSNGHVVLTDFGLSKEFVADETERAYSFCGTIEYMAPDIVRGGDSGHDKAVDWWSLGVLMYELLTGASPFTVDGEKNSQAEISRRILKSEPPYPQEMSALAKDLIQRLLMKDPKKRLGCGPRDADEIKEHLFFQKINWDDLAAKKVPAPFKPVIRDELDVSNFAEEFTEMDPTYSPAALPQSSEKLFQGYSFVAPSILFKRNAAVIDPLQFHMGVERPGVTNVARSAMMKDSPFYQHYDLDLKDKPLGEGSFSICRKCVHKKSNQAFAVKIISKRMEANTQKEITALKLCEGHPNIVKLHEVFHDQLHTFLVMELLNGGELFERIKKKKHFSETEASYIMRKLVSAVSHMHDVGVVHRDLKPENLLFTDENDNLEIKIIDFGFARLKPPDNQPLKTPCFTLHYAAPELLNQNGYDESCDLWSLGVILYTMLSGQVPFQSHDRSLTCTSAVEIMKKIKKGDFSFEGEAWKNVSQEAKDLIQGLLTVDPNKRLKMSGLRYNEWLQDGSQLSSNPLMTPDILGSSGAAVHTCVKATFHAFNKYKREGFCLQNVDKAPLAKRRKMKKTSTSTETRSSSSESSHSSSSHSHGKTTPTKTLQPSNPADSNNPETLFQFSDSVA

[2] = target: T2, Dual specificity tyrosine-phosphorylation-regulated kinase 1A (Homo sapiens, UniProt Q13627); assay: Inhibitory concentration against selected kinase DYRK1-alpha
[3] = target: T3, Cyclin-dependent kinase 2 (Homo sapiens, UniProt P24941); assay: Inhibitory concentration against selected kinase CDK2
[4] = target: T4, Rho-associated protein kinase 1 (Homo sapiens, UniProt Q13464); assay: Inhibitory concentration against selected kinase ROCK1
Target sequence in this assay (Q13464 whole entry): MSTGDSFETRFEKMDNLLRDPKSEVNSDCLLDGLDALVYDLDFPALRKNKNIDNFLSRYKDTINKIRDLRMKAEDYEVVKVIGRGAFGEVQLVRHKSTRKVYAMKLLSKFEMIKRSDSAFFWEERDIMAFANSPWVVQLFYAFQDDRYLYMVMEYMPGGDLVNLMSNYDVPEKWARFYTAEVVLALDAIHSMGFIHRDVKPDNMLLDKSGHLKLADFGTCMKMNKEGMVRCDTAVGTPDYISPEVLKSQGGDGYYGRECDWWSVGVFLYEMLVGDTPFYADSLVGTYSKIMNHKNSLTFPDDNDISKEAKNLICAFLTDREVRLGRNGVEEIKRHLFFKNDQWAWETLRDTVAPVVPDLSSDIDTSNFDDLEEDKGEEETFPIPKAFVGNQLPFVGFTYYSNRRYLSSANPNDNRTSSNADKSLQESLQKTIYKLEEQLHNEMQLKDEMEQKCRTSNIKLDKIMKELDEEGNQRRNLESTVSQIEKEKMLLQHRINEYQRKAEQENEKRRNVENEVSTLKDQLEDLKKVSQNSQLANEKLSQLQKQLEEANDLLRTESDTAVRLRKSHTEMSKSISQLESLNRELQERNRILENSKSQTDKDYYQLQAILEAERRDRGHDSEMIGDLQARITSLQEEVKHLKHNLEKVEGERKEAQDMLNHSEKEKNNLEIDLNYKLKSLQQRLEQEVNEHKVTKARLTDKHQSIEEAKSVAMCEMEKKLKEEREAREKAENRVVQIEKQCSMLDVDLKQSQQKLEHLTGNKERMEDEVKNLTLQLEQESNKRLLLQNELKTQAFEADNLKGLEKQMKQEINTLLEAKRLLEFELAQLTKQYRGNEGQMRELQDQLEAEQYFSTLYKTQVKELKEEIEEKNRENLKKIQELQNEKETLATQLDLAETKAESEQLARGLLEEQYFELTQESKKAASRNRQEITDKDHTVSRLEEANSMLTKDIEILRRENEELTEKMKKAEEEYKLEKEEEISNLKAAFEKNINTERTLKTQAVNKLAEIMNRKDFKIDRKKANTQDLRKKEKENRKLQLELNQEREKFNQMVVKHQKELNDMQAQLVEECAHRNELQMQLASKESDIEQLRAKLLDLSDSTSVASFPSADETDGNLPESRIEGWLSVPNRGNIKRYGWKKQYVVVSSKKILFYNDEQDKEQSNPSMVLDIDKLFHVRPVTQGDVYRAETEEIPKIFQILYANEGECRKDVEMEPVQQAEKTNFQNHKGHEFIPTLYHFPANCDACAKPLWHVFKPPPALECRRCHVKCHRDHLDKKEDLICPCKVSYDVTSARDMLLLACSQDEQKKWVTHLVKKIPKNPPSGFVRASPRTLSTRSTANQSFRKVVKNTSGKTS

[5] = target: T5, Ribosomal protein S6 kinase beta-1 (Homo sapiens, UniProt P23443); assay: Inhibitory concentration against selected kinase p70S6K
Target sequence in this assay (P23443 whole entry): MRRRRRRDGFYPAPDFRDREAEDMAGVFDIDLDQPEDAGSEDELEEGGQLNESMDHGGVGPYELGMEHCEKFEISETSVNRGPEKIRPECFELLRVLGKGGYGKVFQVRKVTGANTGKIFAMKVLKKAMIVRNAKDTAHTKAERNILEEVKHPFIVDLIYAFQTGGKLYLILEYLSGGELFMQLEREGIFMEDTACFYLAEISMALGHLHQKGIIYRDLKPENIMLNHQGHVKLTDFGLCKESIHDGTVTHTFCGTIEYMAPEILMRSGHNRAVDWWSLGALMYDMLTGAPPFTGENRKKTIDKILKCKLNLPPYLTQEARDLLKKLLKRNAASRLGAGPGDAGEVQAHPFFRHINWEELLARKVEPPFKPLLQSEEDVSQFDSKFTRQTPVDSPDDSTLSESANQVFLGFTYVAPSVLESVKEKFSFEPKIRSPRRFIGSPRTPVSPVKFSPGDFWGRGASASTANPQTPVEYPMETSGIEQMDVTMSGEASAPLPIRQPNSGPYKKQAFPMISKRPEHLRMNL

[6] = target: T2, Dual specificity tyrosine-phosphorylation-regulated kinase 1A; assay: Percent inhibition against DYRK1a at 10 uM using 100 uM ATP
[7] = target: Ribosomal protein S6 kinase alpha-1 (Homo sapiens) (UniProt Q15418); assay: Percent inhibition against MAPKAP-K1a at 10 uM using 100 uM ATP
[8] = target: Serine/threonine-protein kinase Sgk1 (Homo sapiens) (UniProt O00141); assay: Percent inhibition against SGK at 10 uM using 100 uM ATP
[9] = target: 5'-AMP-activated protein kinase catalytic subunit alpha-1 (Homo sapiens) (UniProt Q13131); assay: Percent inhibition against AMPK at 10 uM using 100 uM ATP
[10] = target: T3, Cyclin-dependent kinase 2; assay: Percent inhibition against CDK2 at 10 uM using 100 uM ATP
[11] = target: Serine/threonine-protein kinase Chk1 (Homo sapiens) (UniProt O14757); assay: Percent inhibition against Chk1 at 10 uM using 100 uM ATP
[12] = target: Mitogen-activated protein kinase 8 (Homo sapiens) (UniProt P45983); assay: Percent inhibition against JNK1 at 10 uM using 100 uM ATP
[13] = target: Dual specificity mitogen-activated protein kinase kinase 1 (Homo sapiens) (UniProt Q02750); assay: Percent inhibition against MKK1 at 10 uM using 100 uM ATP
[14] = target: T1, Ribosomal protein S6 kinase alpha-5; assay: Percent inhibition against MSK1 at 10 uM using 100 uM ATP
Target sequence in this assay (O75582 whole entry, looked up): as the sequence (O75582 whole entry) above

[15] = target: Mitogen-activated protein kinase 11 (Homo sapiens) (UniProt Q15759); assay: Percent inhibition against p38b at 10 uM using 100 uM ATP
[16] = target: Mitogen-activated protein kinase 13 (Homo sapiens) (UniProt O15264); assay: Percent inhibition against p38d at 10 uM using 100 uM ATP
[17] = target: Glycogen synthase kinase-3 beta (Homo sapiens) (UniProt P49841); assay: Percent inhibition against GSK3-beta at 10 uM using 100 uM ATP
[18] = target: Mitogen-activated protein kinase 1 (Homo sapiens) (UniProt P28482); assay: Percent inhibition against MAPK2 at 10 uM using 100 uM ATP
[19] = target: Mitogen-activated protein kinase 14 (Homo sapiens) (UniProt Q16539); assay: Percent inhibition against p38-alpha at 10 uM using 100 uM ATP
[20] = target: Protein kinase C alpha type (Homo sapiens) (UniProt P17252); assay: Percent inhibition against PKCalpha at 10 uM using 100 uM ATP
[21] = target: MAP kinase-activated protein kinase 2 (Homo sapiens) (UniProt P49137); assay: Percent inhibition against MAPKAP-K2 at 10 uM using 100 uM ATP
[22] = target: Casein kinase II (Homo sapiens) (UniProt P67870+P68400+P19784); assay: Percent inhibition against CK2 at 10 uM using 100 uM ATP; type: protein-complex assay
[23] = target: cAMP-dependent protein kinase (PKA) (Homo sapiens) (UniProt P22694+P17612+P22612); assay: Percent inhibition against PKA at 10 uM using 100 uM ATP; type: protein assay
[24] = target: T4, Rho-associated protein kinase 1; conditions: 10 uM
Description: Percent inhibition against ROCK1 at 10 uM using 100 uM ATP

[25] = target: T5, Ribosomal protein S6 kinase beta-1; conditions: 10 uM
Target sequence in this assay (P23443 whole entry, looked up): as the sequence (P23443 whole entry) above
Description: Percent inhibition against p70S6K at 10 uM using 100 uM ATP

[26] = target: 3-phosphoinositide-dependent protein kinase 1 (Homo sapiens) (UniProt O15530); assay: Percent inhibition against PDK1 at 10 uM using 100 uM ATP

Chain of Mitogen-activated protein kinase 1 (Homo sapiens) (P28482 whole entry): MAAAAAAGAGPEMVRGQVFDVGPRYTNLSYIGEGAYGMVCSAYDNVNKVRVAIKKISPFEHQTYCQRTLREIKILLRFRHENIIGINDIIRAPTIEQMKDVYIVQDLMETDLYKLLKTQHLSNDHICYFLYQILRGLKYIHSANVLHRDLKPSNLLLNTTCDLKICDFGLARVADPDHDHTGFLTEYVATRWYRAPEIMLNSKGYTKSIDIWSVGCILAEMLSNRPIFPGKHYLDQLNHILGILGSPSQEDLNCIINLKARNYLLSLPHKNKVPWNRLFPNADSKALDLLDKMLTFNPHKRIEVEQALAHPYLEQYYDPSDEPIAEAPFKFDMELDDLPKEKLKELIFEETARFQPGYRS
Chain of Dual specificity mitogen-activated protein kinase kinase 1 (Homo sapiens) (Q02750 whole entry): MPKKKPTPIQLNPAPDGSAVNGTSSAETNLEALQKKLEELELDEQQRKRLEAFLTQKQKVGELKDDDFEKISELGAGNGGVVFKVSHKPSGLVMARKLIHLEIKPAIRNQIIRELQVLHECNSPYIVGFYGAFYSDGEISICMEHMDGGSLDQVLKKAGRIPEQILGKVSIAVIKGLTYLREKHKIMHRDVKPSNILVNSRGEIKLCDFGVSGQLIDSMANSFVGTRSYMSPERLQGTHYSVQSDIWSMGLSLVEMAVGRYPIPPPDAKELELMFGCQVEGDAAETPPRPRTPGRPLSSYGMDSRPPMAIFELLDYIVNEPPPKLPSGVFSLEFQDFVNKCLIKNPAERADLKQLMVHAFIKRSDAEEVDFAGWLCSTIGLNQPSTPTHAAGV
Chain of MAP kinase-activated protein kinase 2 (Homo sapiens) (P49137 whole entry, looked up): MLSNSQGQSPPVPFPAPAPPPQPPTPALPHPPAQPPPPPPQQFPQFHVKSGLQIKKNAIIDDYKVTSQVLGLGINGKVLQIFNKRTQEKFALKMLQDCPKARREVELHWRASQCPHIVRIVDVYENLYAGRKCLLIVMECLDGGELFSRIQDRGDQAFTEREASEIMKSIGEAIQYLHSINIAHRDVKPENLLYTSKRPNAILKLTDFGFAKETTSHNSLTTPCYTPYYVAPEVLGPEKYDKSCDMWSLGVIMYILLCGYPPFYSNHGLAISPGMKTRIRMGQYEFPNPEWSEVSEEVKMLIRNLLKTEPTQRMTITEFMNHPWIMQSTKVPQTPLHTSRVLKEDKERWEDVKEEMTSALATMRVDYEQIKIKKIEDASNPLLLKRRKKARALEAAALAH
Chain of Mitogen-activated protein kinase 11 (Homo sapiens) (Q15759 whole entry): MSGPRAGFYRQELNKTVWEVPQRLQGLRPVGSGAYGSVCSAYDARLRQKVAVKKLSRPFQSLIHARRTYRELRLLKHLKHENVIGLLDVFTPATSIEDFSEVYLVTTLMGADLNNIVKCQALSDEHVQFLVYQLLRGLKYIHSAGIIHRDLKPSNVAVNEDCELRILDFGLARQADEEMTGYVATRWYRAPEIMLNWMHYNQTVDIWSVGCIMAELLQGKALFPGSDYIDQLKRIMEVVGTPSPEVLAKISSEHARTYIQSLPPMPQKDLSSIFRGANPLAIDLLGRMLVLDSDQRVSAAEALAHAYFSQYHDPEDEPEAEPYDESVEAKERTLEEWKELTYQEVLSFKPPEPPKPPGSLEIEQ

SMILES: Nc1nonc1-c1nc2cnccc2n1C1CCNCC1
IC50 [1]: 0.017 µM

SMILES: CCc1nccc2c1nc(-c1nonc1N)n2CC
IC50 [1]: 0.229 µM

SMILES: CN(C)CCCn1c(-c2nonc2N)nc2cnccc21
IC50 [1]: 0.617 µM

SMILES: CCn1c(-c2nonc2N)nc2c(OC)nccc21
IC50 [1]: 0.209 µM

SMILES: CCOc1nccc2c1nc(-c1nonc1N)n2CC
IC50 [1]: 0.174 µM

SMILES: CCn1c(-c2nonc2N)nc2c(N3CCCC3)nccc21
IC50 [1]: 2.24 µM

SMILES: CCn1c(-c2nonc2N)nc2c(Oc3ccccc3)nccc21
IC50 [1]: 10 µM

SMILES: NCCCn1c(-c2nonc2N)nc2cnccc21
IC50 [1]: 0.022 µM

SMILES: CCn1c(-c2nonc2N)nc2c(-c3ccccc3)nccc21
IC50 [1]: 0.813 µM

SMILES: CCn1c(-c2nonc2N)nc2cncc(CNC3CCNCC3)c21
IC50 [2]: 4.9 µM
IC50 [3]: > 10 µM
IC50 [4]: 0.1 µM
IC50 [5]: 0.27 µM
IC50 [1]: 0.0005 µM

More lines, in order of falling IC50 [1], values ahead:

IC50 [1]: 0.013 µM
SMILES: NCCCCn1c(-c2nonc2N)nc2cnccc21

IC50 [1]: 0.008 µM
SMILES: CCn1c(-c2nonc2N)nc2c(C)nccc21

IC50 [1]: 0.007 µM
SMILES: CCn1c(-c2nonc2N)nc2cncc(CN3CCCCC3)c21

IC50 [1]: 0.006 µM
SMILES: Nc1nonc1-c1nc2cnccc2n1-c1ccccc1

IC50 [1]: 0.004 µM
SMILES: CCn1c(-c2nonc2N)nc2c(Cl)nccc21

IC50 [1]: 0.004 µM
SMILES: NCc1ccc(-n2c(-c3nonc3N)nc3cnccc32)cc1

IC50 [1]: 0.003 µM
SMILES: Nc1nonc1-c1nc2cnccc2n1C1CCCCC1

IC50 [2]: 0.11 µM
IC50 [3]: 0.169 µM
IC50 [4]: 0.013 µM
IC50 [5]: 0.07 µM
inhibition [6]: 94%
inhibition [7]: 97%
inhibition [8]: 67%
inhibition [9]: 59%
inhibition [10]: 84%
inhibition [11]: -6%
inhibition [12]: 13%
inhibition [13]: 17%
inhibition [14]: 96%
inhibition [15]: 18%
inhibition [16]: 6%
inhibition [17]: 90%
inhibition [18]: 41%
inhibition [19]: -7%
inhibition [20]: 56%
inhibition [21]: 12%
inhibition [22]: 15%
inhibition [23]: 75%
IC50 [1]: 0.003 µM
inhibition [24]: 90%
inhibition [25]: 95%
inhibition [26]: 32%
SMILES: CCn1c(-c2nonc2N)nc2cnccc21

IC50 [1]: 0.003 µM
SMILES: CCn1c(-c2nonc2N)nc2cncc(CN3CCC(N)CC3)c21

IC50 [1]: 0.0025 µM
SMILES: NCc1cccc(-n2c(-c3nonc3N)nc3cnccc32)c1

IC50 [1]: 0.002 µM
SMILES: Nc1nonc1-c1nc2cnccc2n1C1CCCNC1 (racemic)

IC50 [1]: 0.0015 µM
SMILES: Nc1nonc1-c1nc2cnccc2n1C1CC1

IC50 [1]: 0.0014 µM
SMILES: CCn1c(-c2nonc2N)nc2cncc(CN3CCNCC3)c21
